In patent US20240199649A1 (Biosplice Therapeutics, Inc., priority 2022, published 2024) one finds IC50 data, which are given here for 25 molecules.

The target of this assay is recombinant DYRK1A kinase (Homo sapiens (Human), UniProt Q13627). Kind of assay: DYRK1A kinase assay (Ser/Thr 18 peptide Z-lyte FRET assay). It counts as biochemical. To be noted: DYRK1A 0.25 μg/mL, ATP 15 μM, Ser/Thr peptide 18 4 μM; one hour at room temperature; 11-point dose-response, duplicate. An outline of the steps: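 Z-lyte FRET assay on Ser/Thr 18 peptide, kinase activity read as coumarin/fluorescein emission ratio; compounds incubated 1 h at room temperature, then development reagent 1 h, in duplicate. Phosphorylated and unphosphorylated peptide served as controls; IC50 by non-linear regression of dose-response curves.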
For `CC(=O)N1CC[C@H](Nc2nc(N)c3c(-c4ccc5nc(C)n(CC(F)F)c5n4)ccn3n2)[C@H](F)C1` [Compound 715, 1-((3R,4S)-4-((4-Amino-5-(3-(2,2-difluoroethyl)-2-methyl-3H-imidazo[4,5-b]pyridin-5-yl)pyrrolo[2,1-f][1,2,4]triazin-2-yl)amino)-3-fluoropiperidin-1-yl)ethan-1-one], the IC50 – broadly, the midpoint of a concentration-inhibition curve – is 0.4 nM.

Turning to `CC(=O)N1CC[C@@H](Nc2nc(N)c3c(-c4ccc5nc(C)n(CC(F)F)c5n4)ccn3n2)C(F)(F)C1` [Compound 729, (R)-1-(4-((4-Amino-5-(3-(2,2-difluoroethyl)-2-methyl-3H-imidazo[4,5-b]pyridin-5-yl)pyrrolo[2,1-f][1,2,4]triazin-2-yl)amino)-3,3-difluoropiperidin-1-yl)ethan-1-one], the IC50 worked out at 0.4 nM.

As for `Cc1nc2ccc(-c3ccn4nc(N[C@@H]5CCN(C6COC6)CC5(F)F)nc(N)c34)nc2n1CC(F)F` [Compound 730, (R)—N^2-(3,3-Difluoro-1-(oxetan-3-yl)piperidin-4-yl)-5-(3-(2,2-difluoroethyl)-2-methyl-3H-imidazo[4,5-b]pyridin-5-yl)pyrrolo[2,1-f][1,2,4]triazine-2,4-diamine], the concentration for half-maximal inhibition (IC50) came to 2.1 nM.

Consider `Cc1nc2ccc(-c3ccn4nc(N[C@H]5CC[C@](C)(O)CC5)nc(N)c34)nc2n1CC(F)(F)F` [Compound 754, (1r,4r)-4-((4-Amino-5-(2-methyl-3-(2,2,2-trifluoroethyl)-3H-imidazo[4,5-b]pyridin-5-yl)pyrrolo[2,1-f][1,2,4]triazin-2-yl)amino)-1-methylcyclohexan-1-ol], for which the IC50 was 0.5 nM.

For `CC(=O)N1C[C@H](F)[C@H](Nc2nc(N)c3c(-c4ccc5nc(C)n(CC(F)(F)F)c5n4)ccn3n2)C1` [Compound 762, 1-((3R,4S)-3-((4-Amino-5-(2-methyl-3-(2,2,2-trifluoroethyl)-3H-imidazo[4,5-b]pyridin-5-yl)pyrrolo[2,1-f][1,2,4]triazin-2-yl)amino)-4-fluoropyrrolidin-1-yl)ethan-1-one], the IC50 turned out to be 1.5 nM.

Take `Cc1nc2ccc(-c3ccn4nc(N[C@@H]5CN(C6COC6)C[C@@H]5F)nc(N)c34)nc2n1CC(F)(F)F` [Compound 763, N^2-((3R,4S)-4-Fluoro-1-(oxetan-3-yl)pyrrolidin-3-yl)-5-(2-methyl-3-(2,2,2-trifluoroethyl)-3H-imidazo[4,5-b]pyridin-5-yl)pyrrolo[2,1-f][1,2,4]triazine-2,4-diamine]: the IC50 turned out to be 1.4 nM.

For the molecule `CC(=O)N1CC[C@H](Nc2nc(N)c3c(-c4ccc5nc(C)n(CC(F)(F)F)c5n4)ccn3n2)[C@H](F)C1` [Compound 777, 1-((3R,4S)-4-((4-Amino-5-(2-methyl-3-(2,2,2-trifluoroethyl)-3H-imidazo[4,5-b]pyridin-5-yl)pyrrolo[2,1-f][1,2,4]triazin-2-yl)amino)-3-fluoropiperidin-1-yl)ethan-1-one], the IC50 was found to be 1.2 nM.

With `Cc1nc2ccc(-c3ccn4nc(N[C@H]5CCN(C6COC6)C[C@H]5F)nc(N)c34)nc2n1CC(F)(F)F` [Compound 780, N^2-((3R,4S)-3-Fluoro-1-(oxetan-3-yl)piperidin-4-yl)-5-(2-methyl-3-(2,2,2-trifluoroethyl)-3H-imidazo[4,5-b]pyridin-5-yl)pyrrolo[2,1-f][1,2,4]triazine-2,4-diamine], the IC50 is 1.2 nM.

Regarding `Cc1nc2ccc(-c3ccn4nc(N[C@@H]5CCN(C6COC6)CC5(F)F)nc(N)c34)nc2n1CC(F)(F)F` [Compound 792, (R)—N^2-(3,3-Difluoro-1-(oxetan-3-yl)piperidin-4-yl)-5-(2-methyl-3-(2,2,2-trifluoroethyl)-3H-imidazo[4,5-b]pyridin-5-yl)pyrrolo[2,1-f][1,2,4]triazine-2,4-diamine], the IC50 turned out to be 4.8 nM.

Take `C[C@]1(O)CC[C@H](Nc2nc(N)c3c(-c4ccc5nnn(CC(F)F)c5n4)ccn3n2)CC1` [Compound 816, (1r,4r)-4-((4-Amino-5-(3-(2,2-difluoroethyl)-3H-[1,2,3]triazolo[4,5-b]pyridin-5-yl)pyrrolo[2,1-f][1,2,4]triazin-2-yl)amino)-1-methylcyclohexan-1-ol]: the IC50 came to 1.3 nM.

In the case of `Nc1nc(N[C@H]2CCN(C3COC3)C[C@H]2F)nn2ccc(-c3ccc4nnn(CC(F)F)c4n3)c12` [Compound 842, 5-(3-(2,2-Difluoroethyl)-3H-[1,2,3]triazolo[4,5-b]pyridin-5-yl)-N^2-((3R,4S)-3-fluoro-1-(oxetan-3-yl)piperidin-4-yl)pyrrolo[2,1-f][1,2,4]triazine-2,4-diamine], the IC50 worked out at 1.5 nM.

For `CN1CC[C@@H](Nc2nc(N)c3c(-c4ccc5nnn(CC(F)F)c5n4)ccn3n2)C(F)(F)C1` [Compound 850, (R)—N^2-(3,3-Difluoro-1-methylpiperidin-4-yl)-5-(3-(2,2-difluoroethyl)-3H-[1,2,3]triazolo[4,5-b]pyridin-5-yl)pyrrolo[2,1-f][1,2,4]triazine-2,4-diamine], the IC50 is 0.6 nM.

For the molecule `CC(=O)N1CC[C@@H](Nc2nc(N)c3c(-c4ccc5nnn(CC(F)F)c5n4)ccn3n2)C(F)(F)C1` [Compound 853, (R)-1-(4-((4-Amino-5-(3-(2,2-difluoroethyl)-3H-[1,2,3]triazolo[4,5-b]pyridin-5-yl)pyrrolo[2,1-f][1,2,4]triazin-2-yl)amino)-3,3-difluoropiperidin-1-yl)ethan-1-one], the IC50 turned out to be 1.5 nM.

Take `Nc1nc(N[C@@H]2CCN(C3COC3)CC2(F)F)nn2ccc(-c3ccc4nnn(CC(F)F)c4n3)c12` [Compound 854, (R)—N^2-(3,3-Difluoro-1-(oxetan-3-yl)piperidin-4-yl)-5-(3-(2,2-difluoroethyl)-3H-[1,2,3]triazolo[4,5-b]pyridin-5-yl)pyrrolo[2,1-f][1,2,4]triazine-2,4-diamine]: the concentration for half-maximal inhibition (IC50) turned out to be 2.1 nM.

As to `CN1CC[C@@H](Nc2nc(N)c3c(-c4ccc5ncn(CCF)c5n4)ccn3n2)C(F)(F)C1` [Compound 985, (R)—N^2-(3,3-Difluoro-1-methylpiperidin-4-yl)-5-(3-(2-fluoroethyl)-3H-imidazo[4,5-b]pyridin-5-yl)pyrrolo[2,1-f][1,2,4]triazine-2,4-diamine], the concentration for half-maximal inhibition (IC50) was determined as 1.5 nM.

Consider `C[C@]1(O)CC[C@H](Nc2nc(N)c3c(-c4ccc5ncn(CC(F)F)c5n4)ccn3n2)CC1` [Compound 986, (1r,4r)-4-((4-Amino-5-(3-(2,2-difluoroethyl)-3H-imidazo[4,5-b]pyridin-5-yl)pyrrolo[2,1-f][1,2,4]triazin-2-yl)amino)-1-methylcyclohexan-1-ol], for which the IC50 stood at 0.7 nM.

As for `CC(=O)N1C[C@H](F)[C@H](Nc2nc(N)c3c(-c4ccc5ncn(CC(F)F)c5n4)ccn3n2)C1` [Compound 987, 1-((3R,4S)-3-((4-Amino-5-(3-(2,2-difluoroethyl)-3H-imidazo[4,5-b]pyridin-5-yl)pyrrolo[2,1-f][1,2,4]triazin-2-yl)amino)-4-fluoropyrrolidin-1-yl)ethan-1-one], the IC50 stood at 0.8 nM.

On to `Nc1nc(N[C@@H]2CN(C3COC3)C[C@@H]2F)nn2ccc(-c3ccc4ncn(CC(F)F)c4n3)c12` [Compound 988, 5-(3-(2,2-Difluoroethyl)-3H-imidazo[4,5-b]pyridin-5-yl)-N^2-((3R,4S)-4-fluoro-1-(oxetan-3-yl)pyrrolidin-3-yl)pyrrolo[2,1-f][1,2,4]triazine-2,4-diamine], for which the IC50 amounted to 0.6 nM.

Regarding `Nc1nc(N[C@H]2CCN(C3COC3)C[C@H]2F)nn2ccc(-c3ccc4ncn(CC(F)F)c4n3)c12` [Compound 990, 5-(3-(2,2-Difluoroethyl)-3H-imidazo[4,5-b]pyridin-5-yl)-N^2-((3R,4S)-3-fluoro-1-(oxetan-3-yl)piperidin-4-yl)pyrrolo[2,1-f][1,2,4]triazine-2,4-diamine], the IC50 is 0.6 nM.

For the molecule `CN1CC[C@@H](Nc2nc(N)c3c(-c4ccc5ncn(CC(F)F)c5n4)ccn3n2)C(F)(F)C1` [Compound 991, (R)—N^2-(3,3-Difluoro-1-methylpiperidin-4-yl)-5-(3-(2,2-difluoroethyl)-3H-imidazo[4,5-b]pyridin-5-yl)pyrrolo[2,1-f][1,2,4]triazine-2,4-diamine], the IC50 was found to be 0.4 nM.

As to `CC(=O)N1CC[C@@H](Nc2nc(N)c3c(-c4ccc5ncn(CC(F)F)c5n4)ccn3n2)C(F)(F)C1` [Compound 992, (R)-1-(4-((4-Amino-5-(3-(2,2-difluoroethyl)-3H-imidazo[4,5-b]pyridin-5-yl)pyrrolo[2,1-f][1,2,4]triazin-2-yl)amino)-3,3-difluoropiperidin-1-yl)ethan-1-one], the 50% inhibitory concentration (IC50) stood at 0.7 nM.

For `Nc1nc(N[C@@H]2CCN(C3COC3)CC2(F)F)nn2ccc(-c3ccc4ncn(CC(F)F)c4n3)c12` [Compound 993, (R)—N^2-(3,3-Difluoro-1-(oxetan-3-yl)piperidin-4-yl)-5-(3-(2,2-difluoroethyl)-3H-imidazo[4,5-b]pyridin-5-yl)pyrrolo[2,1-f][1,2,4]triazine-2,4-diamine], the IC50 worked out at 0.6 nM.

Take `CN1CC[C@@H](Nc2nc(N)c3c(-c4ccc5ncn(CC(F)(F)F)c5n4)ccn3n2)C(F)(F)C1` [Compound 994, (R)—N^2-(3,3-Difluoro-1-methylpiperidin-4-yl)-5-(3-(2,2,2-trifluoroethyl)-3H-imidazo[4,5-b]pyridin-5-yl)pyrrolo[2,1-f][1,2,4]triazine-2,4-diamine]: the IC50 amounted to 1.2 nM.

For `Cc1nc2ccc(-c3ccn4nc(N[C@H]5CC[C@](C)(O)CC5)nc(N)c34)nc2n1CCF` [Compound 995, (1r,4r)-4-((4-Amino-5-(3-(2-fluoroethyl)-2-methyl-3H-imidazo[4,5-b]pyridin-5-yl)pyrrolo[2,1-f][1,2,4]triazin-2-yl)amino)-1-methylcyclohexan-1-ol], the IC50 is 0.8 nM.

On to `CC(=O)N1CC[C@H](Nc2nc(N)c3c(-c4ccc5nc(C)n(CCF)c5n4)ccn3n2)[C@H](F)C1` [Compound 996, 1-((3R,4S)-4-((4-Amino-5-(3-(2-fluoroethyl)-2-methyl-3H-imidazo[4,5-b]pyridin-5-yl)pyrrolo[2,1-f][1,2,4]triazin-2-yl)amino)-3-fluoropiperidin-1-yl)ethan-1-one], for which the IC50 amounted to 1.8 nM.
